For one series, the target named is T1, human Gcg receptor (Homo sapiens, UniProt P47871).
T1 construct: expressed in transfected cells; crude membranes
The experiment in a line: [125I]-Glucagon binding (SPA), human Gcg receptor. The conditions noted are these: read-out: hGLcgR Ki, nM (SEM, n). The method in brief: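 Crude membranes from cells expressing the receptor, prepared by hypotonic lysis in 50 mM Tris HCl pH 7.5 with protease inhibitors, homogenization and differential centrifugation, were used in a WGA-bead SPA. Binding buffer: 25 mM HEPES pH 7.4, 2.5 mM CaCl2, 1 mM MgCl2, bacitracin, Tween-20.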

Series [1] addresses T2, human GLP-1R (Homo sapiens, UniProt P43220). The experiment in a line: [125I]-GLP-1 binding (SPA), human GLP-1 receptor. Set-up: expressed in transfected cells; crude membranes. Conditions: read-out: hGLP1R Ki, (nM) (SEM, n). Put shortly:
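Assay buffer: HEPES 25 mM, pH 7.4, CaCl2 2.5 mM, MgCl2 1 mM, with EDTA-free protease inhibitors. Receptor came from crude cell membranes prepared by homogenization and centrifugation at 4° C. IC50s came from four-parameter fits (maximum, minimum, IC50, Hill slope) and were expressed as Ki geometric means with SEM.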

The next series deals with T3, human GIP receptor (Homo sapiens, UniProt P48546).
T3 construct: expressed in transfected cells; crude membranes
T3 sequence (P48546 22-466): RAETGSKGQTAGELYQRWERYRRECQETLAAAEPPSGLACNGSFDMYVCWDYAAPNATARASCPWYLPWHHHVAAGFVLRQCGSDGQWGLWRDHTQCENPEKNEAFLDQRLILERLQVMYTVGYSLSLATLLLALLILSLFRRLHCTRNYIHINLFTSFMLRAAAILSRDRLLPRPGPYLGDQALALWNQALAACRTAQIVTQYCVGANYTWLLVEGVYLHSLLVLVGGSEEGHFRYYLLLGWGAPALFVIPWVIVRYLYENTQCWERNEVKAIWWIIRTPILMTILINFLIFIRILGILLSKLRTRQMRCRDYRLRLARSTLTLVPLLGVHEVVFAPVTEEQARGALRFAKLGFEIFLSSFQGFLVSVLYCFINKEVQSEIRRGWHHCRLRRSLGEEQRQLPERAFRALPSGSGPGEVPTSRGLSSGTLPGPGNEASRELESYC
The experiment in a line: [125I]-GIP binding (SPA), human GIP receptor. Conditions: read-out: hGIPR Ki, nM (SEM, n).

A further series in a line: in vitro. The protocol:
The stability of peptides are compared in 1% rat small intestinal fluid (rSIF). The amount of intact peptide is measured for a sample peptide at 0, 3, 15, and 30 minutes to assess proteolytic stability. The amount of intact peptide for a sample peptide is measured in 90% pig small intestinal fluid (pSIF) at 0, 30, 45, and 60 minutes to assess the proteolytic stability.
Peptides are prepared at 0.4 mg/mL in 50 mM Tris pH8.0. […] The mixture is incubated at 37° C. at 150 rpm. Thirty μL of each sample are removed and placed into a new tube before the rSIF is added and at […]. At each time point, the reaction was quenched by 1% TFA in 50% ACN at 1:1. The samples are diluted 100 times using dilution buffer (1:1 of 1% TFA in 50% ACN: 50 mM Tris pH8) and ready for analysis using mass spectrometry (MS).
The data analysis is performed using MassLynx.

Series [2] addresses T4, gastric inhibitory peptide receptor (GIPR) (Homo sapiens, UniProt P48546).
T4 sequence (P48546 22-466): T3 sequence (P48546 22-466)
The experiment in a line: cAMP pharmacological functional assay in presence of casein, hGIPR. The series is classed as cell-based. The conditions noted are these: HEK293 cells expressing hGIPR, 0.1% Casein, geometric mean; read-out: hGIPR cAMP Rel EC50 nM (SEM, n).

The target in series [3] is human GLP-1 receptor (GLP-1R) (Homo sapiens, UniProt P43220). The experiment in a line: cAMP pharmacological functional assay in presence of casein, hGLP-1R. It is filed as cell-based. The conditions noted are these: HEK293 cells expressing hGLP-1R, 0.1% Casein, geometric mean; read-out: hGLP1R cAMP Rel EC50 nM (SEM, n).
Sequence of human GLP-1 receptor (GLP-1R) (P43220 24-463): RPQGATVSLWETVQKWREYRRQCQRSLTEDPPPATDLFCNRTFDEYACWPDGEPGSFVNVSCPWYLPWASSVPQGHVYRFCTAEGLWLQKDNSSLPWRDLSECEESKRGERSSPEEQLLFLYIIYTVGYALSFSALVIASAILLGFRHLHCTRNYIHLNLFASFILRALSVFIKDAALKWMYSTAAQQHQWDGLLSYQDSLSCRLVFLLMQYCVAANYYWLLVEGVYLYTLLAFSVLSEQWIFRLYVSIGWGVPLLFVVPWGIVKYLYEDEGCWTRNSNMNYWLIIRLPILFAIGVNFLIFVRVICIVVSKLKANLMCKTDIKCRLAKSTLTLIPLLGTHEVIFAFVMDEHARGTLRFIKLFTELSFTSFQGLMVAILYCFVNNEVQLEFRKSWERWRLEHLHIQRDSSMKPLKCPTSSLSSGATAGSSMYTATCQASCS
Series [4] addresses T2, human GLP-1R. The series can be described thus: GLP-1R HEK293 cell membrane [35S]GTPγS binding assay. Also noted: expressed in transfected cells; host or cells: HEK293 cells expressing human GLP-1R; membranes. Conditions: HEK293 cell membranes expressing human GLP-1R, [35S]GTPγS binding; read-out: hGLP1R GTPgS Rel EC50 nM (SEM, n). The series is classed as biochemical. The method in brief: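 Agonist-driven Gαs activation read as [35S]GTPγS ([…]) binding to receptor-expressing HEK293 membranes, 30 min at room temperature, pH 7.4. Detection by anti-Gαs immunocapture on scintillation beads; EC50 derived from four-parameter logistic concentration-response fit.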
A general note: GTPγS resists hydrolysis and so accumulates on activated G proteins.

The target in series [5] is T2, human GLP-1R. The series can be described thus: GLP-1R CHO cell β-arrestin recruitment assay. The series is classed as cell-based. Set-up: host or cells: CHO-K1 PathHunter cells, assay-ready frozen. Conditions: for EC50: CHO-K1 cells, PathHunter β-arrestin-2 recruitment, 0.1% casein, read-out: hGLP1R B-Arrestin2 Rel EC50 uM (SEM, n); for hGLP1R B-Arrestin2 % Top: normalized to GLP-1 maximum control. Put shortly:
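Peptide-induced β-arrestin-2 recruitment measured by enzyme-fragment complementation luminescence after 90 min at 37 °C plus 60 min detection at RT.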
On the technique in general: Arrestin recruitment assays detect the binding of arrestin to an activated receptor.

Series [6] relates to CD8+ T cell depleted peripheral blood mononuclear cells. The series can be described thus: CD4+ T cell assay for potential clinical immunogenicity. The conditions noted are these: Examples 10 uM, KLH 0.33 μM, 7 days.
[7] abbreviates: rat, real gastrointestinal fluid or homogenate, pH 8.

In general, Ki refers to the equilibrium dissociation constant of an inhibitor or competing ligand from its target. The share remaining is the share of the starting amount still present when the sample was taken. Read a low share remaining as a greater loss. The EC50 is the concentration at which the effect is half-maximal.

Numbered stars: 1 amine (or outer) side, 2 acyl side, 3 side chain; on linkers, the order of the positions; unused ones are H or OH. Square brackets hold non-standard residues; d marks the D form. Side chains are listed from the residue outwards. Peptide text beside a SMILES is read from it. * marks the point of attachment. C20 diacid = O=C(O)CCCCCCCCCCCCCCCCCCC(=O)*; C18 diacid = O=C(O)CCCCCCCCCCCCCCCCC(=O)*; γGlu = O=C(O)[C@H](CCC(=O)[*:2])N[*:1]; αMeY = C[C@](N)(Cc1ccc(O)cc1)C(=O)O; αMeL = CC(C)C[C@](C)(N)C(=O)O; Orn = NCCC[C@H](N)C(=O)O; AEEA = NCCOCCOCC(=O)O; Aib = CC(C)(N)C(=O)O Some results are limits rather than exact numbers.

T2 sequence (P43220 24-463): as above
T1 sequence (P47871 26-477): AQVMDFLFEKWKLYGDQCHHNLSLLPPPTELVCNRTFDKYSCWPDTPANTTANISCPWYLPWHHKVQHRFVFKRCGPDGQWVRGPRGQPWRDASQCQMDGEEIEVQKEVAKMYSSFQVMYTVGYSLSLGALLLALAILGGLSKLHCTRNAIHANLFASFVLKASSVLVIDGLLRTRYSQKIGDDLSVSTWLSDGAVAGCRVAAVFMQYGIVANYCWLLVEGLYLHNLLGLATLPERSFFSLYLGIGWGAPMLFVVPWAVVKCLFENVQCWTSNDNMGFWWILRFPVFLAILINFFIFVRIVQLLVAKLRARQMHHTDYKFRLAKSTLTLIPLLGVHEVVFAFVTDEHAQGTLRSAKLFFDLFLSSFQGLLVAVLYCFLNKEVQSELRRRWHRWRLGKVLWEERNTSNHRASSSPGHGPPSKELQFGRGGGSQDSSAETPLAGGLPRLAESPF

For `CC[C@H](C)[C@H](NC(=O)[C@H](CC(C)C)NC(=O)[C@H](Cc1ccc(O)cc1)NC(=O)[C@H](CCC(=O)O)NC(=O)[C@@H](NC(=O)[C@H](Cc1ccccc1)NC(=O)[C@H](C)NC(=O)C(C)(C)NC(=O)[C@H](CCC(N)=O)NC(=O)[C@H](C)NC(=O)[C@H](CCCCNC(=O)COCCOCCNC(=O)COCCOCCNC(=O)CC[C@H](NC(=O)CCCCCCCCCCCCCCCCCCC(=O)O)C(=O)O)NC(=O)[C@H](CCCCN)NC(=O)[C@H](CC(=O)O)NC(=O)[C@H](CC(C)C)NC(=O)[C@](C)(CC(C)C)NC(=O)[C@@H](NC(=O)[C@H](CO)NC(=O)[C@H](Cc1ccc(O)cc1)NC(=O)[C@H](CC(=O)O)NC(=O)[C@H](CO)NC(=O)[C@@H](NC(=O)[C@](C)(Cc1ccccc1)NC(=O)[C@@H](NC(=O)CNC(=O)[C@H](CCC(=O)O)NC(=O)C(C)(C)NC(=O)[C@@H](N)Cc1ccc(O)cc1)[C@@H](C)O)[C@@H](C)O)[C@@H](C)CC)[C@@H](C)CC)C(=O)N[C@@H](CCC(=O)O)C(=O)NCC(=O)NCC(=O)N1CCC[C@H]1C(=O)N[C@@H](CO)C(=O)N[C@@H](CO)C(=O)NCC(=O)N[C@@H](C)C(=O)N1CCC[C@H]1C(=O)N1CCC[C@H]1C(=O)N1CCC[C@H]1C(=O)N[C@@H](CO)C(N)=O` [Example 69], the results for the Ki at human Gcg receptor, at human GLP-1R [1] and at human GIP receptor were 22.1 nM, 1.22 nM and 0.03 nM, respectively. In “in vitro”, the “percentage of peptide not cleaved using rSIF” value worked out at 100%. In “in vitro” (setting [7]), this compound gave a share remaining at 0.05 h, 0.4 mg/mL of 2.2%. The compound also came in with a share remaining at 0.25 h, 0.4 mg/mL in the series “in vitro” (setting [7]) of 0%. This compound showed a share remaining at 1 h, 0.4 mg/mL in “in vitro” (setting [7]) of 0%. The EC50 stood at 0.0712 nM in series [2] and 0.0844 nM in series [3].
As for `CC[C@H](C)[C@H](NC(=O)[C@H](CC(C)C)NC(=O)[C@H](Cc1ccc(O)cc1)NC(=O)[C@@H](CCC(=O)O)NC(=O)[C@@H](NC(=O)[C@H](Cc1ccccc1)NC(=O)[C@H](C)NC(=O)C(C)(C)NC(=O)[C@H](CCC(N)=O)NC(=O)[C@H](C)NC(=O)[C@H](CCCCNC(=O)COCCOCCNC(=O)COCCOCCNC(=O)CC[C@H](NC(=O)CCCCCCCCCCCCCCCCC(=O)O)C(=O)O)NC(=O)[C@H](CCCN)NC(=O)[C@H](CC(=O)O)NC(=O)[C@H](CC(C)C)NC(=O)[C@](C)(CC(C)C)NC(=O)[C@@H](NC(=O)[C@H](CO)NC(=O)[C@H](Cc1ccc(O)cc1)NC(=O)[C@H](CC(=O)O)NC(=O)[C@H](CO)NC(=O)[C@@H](NC(=O)[C@H](Cc1ccccc1)NC(=O)[C@@H](NC(=O)CNC(=O)[C@H](CCC(=O)O)NC(=O)C(C)(C)NC(=O)[C@H](N)Cc1ccc(O)cc1)[C@@H](C)O)[C@@H](C)O)[C@@H](C)CC)[C@@H](C)CC)C(=O)N[C@@H](C)C(=O)NCC(=O)NCC(=O)N1CCC[C@H]1C(=O)N[C@@H](CO)C(=O)N[C@@H](CO)C(=O)NCC(=O)N[C@@H](C)C(=O)N1CCC[C@H]1C(=O)N1CCC[C@H]1C(=O)N1CCC[C@H]1C(=O)N[C@@H](CO)C(N)=O` [Example 363] (H-[dY][Aib]EGTFTSDYSI[αMeL]LD[Orn]K([AEEA-AEEA-γGlu-C18 diacid])AQ[Aib]AFI[dE]YLIAGGPSSGAPPPS-NH2), the Ki is above 1020 nM at human Gcg receptor, 3.89 nM at human GLP-1R [1] and 0.17 nM at human GIP receptor. The EC50 at human GLP-1R [4] stood at 0.943 nM; on human GLP-1R [5] it was 0.135 µM; in series [2], 0.145 nM; in series [3], 0.208 nM. Besides, at human GLP-1R [5], the “hGLP1R B-Arrestin2 % Top” value is 22.1%.
Consider `CC[C@H](C)[C@H](NC(=O)[C@H](CC(C)C)NC(=O)[C@](C)(Cc1ccc(O)cc1)NC(=O)[C@H](CCC(=O)O)NC(=O)[C@@H](NC(=O)[C@H](Cc1ccccc1)NC(=O)[C@H](CCC(=O)O)NC(=O)C(C)(C)NC(=O)[C@H](CCC(N)=O)NC(=O)[C@H](C)NC(=O)[C@H](CCCCNC(=O)COCCOCCNC(=O)COCCOCCNC(=O)CC[C@H](NC(=O)CCCCCCCCCCCCCCCCCCC(=O)O)C(=O)O)NC(=O)[C@H](CCCCN)NC(=O)[C@H](CC(=O)O)NC(=O)[C@H](CC(C)C)NC(=O)[C@](C)(CC(C)C)NC(=O)[C@@H](NC(=O)[C@H](CO)NC(=O)[C@H](Cc1ccc(O)cc1)NC(=O)[C@H](CC(=O)O)NC(=O)[C@H](CO)NC(=O)[C@@H](NC(=O)[C@H](Cc1ccccc1)NC(=O)[C@@H](NC(=O)CNC(=O)[C@H](CCC(=O)O)NC(=O)C(C)(C)NC(=O)[C@@H](N)Cc1ccc(O)cc1)[C@@H](C)O)[C@@H](C)O)[C@@H](C)CC)[C@@H](C)CC)C(=O)N[C@@H](C)C(=O)NCC(=O)NCC(=O)N1CCC[C@H]1C(=O)N[C@@H](CO)C(=O)N[C@@H](CO)C(=O)NCC(=O)N[C@@H](C)C(=O)N1CCC[C@H]1C(=O)N1CCC[C@H]1C(=O)N1CCC[C@H]1C(=O)N[C@@H](CO)C(N)=O` [Example 367] (H-Y[Aib]EGTFTSDYSI[αMeL]LDKK([AEEA-AEEA-γGlu-C20 diacid])AQ[Aib]EFIE[αMeY]LIAGGPSSGAPPPS-NH2), for which the Ki was 777 nM at human Gcg receptor, 0.809 nM at human GLP-1R [1] and 0.0282 nM at human GIP receptor. The EC50 on human GLP-1R [4] was determined as 0.289 nM; on human GLP-1R [5] it was 0.00666 µM; in [2], 0.0179 nM; in series [3] it was 0.0641 nM. Also, the “hGLP1R B-Arrestin2 % Top” value at human GLP-1R [5] is 70.6%.
In the case of “keyhole limpet hemocyanin [KLH, reference compound]”, in series [6], the “% Donor Response (CD4+ T cell response)” value was 100% and the “Median Response Strength in positive donors (CDI)” value is given as 391 CDI.

For the origin of these results see patent US12252524B2, “GIP/GLP1 co-agonist compounds” (Eli Lilly and Company, priority 2018, dated 2025).
